Assay results from PMC9124651, “High-performance thin-layer chromatography in combination with an acetylcholinesterase-inhibition bioassay with pre-oxidation of organothiophosphates to determine neurotoxic effects in storm, waste, and surface water” (Analytical and Bioanalytical Chemistry, 2022).
Converted amounts (≈) assume the structure as drawn.

How the values were obtained:
[1] = molecular target: T1, AChE from electric eel (Electrophorus electricus) (Electrophorus electricus, UniProt O42275); assay: AChE-inhibition microtiter assay (Ellman, 96-well, with or without NBS oxidation); type: biochemical; conditions: for IC80 / IC20: no oxidation, 4-PL fit, n = 4; for IC80: read-out: IC20 (inhibition concentration for 20% AChE activity), best fit; for IC20: read-out: IC80 (inhibition concentration for 80% AChE activity), best fit
T1 construct: purchased Sigma-Aldrich GmbH (Steinheim, Germany)
T1 sequence (O42275 24-633): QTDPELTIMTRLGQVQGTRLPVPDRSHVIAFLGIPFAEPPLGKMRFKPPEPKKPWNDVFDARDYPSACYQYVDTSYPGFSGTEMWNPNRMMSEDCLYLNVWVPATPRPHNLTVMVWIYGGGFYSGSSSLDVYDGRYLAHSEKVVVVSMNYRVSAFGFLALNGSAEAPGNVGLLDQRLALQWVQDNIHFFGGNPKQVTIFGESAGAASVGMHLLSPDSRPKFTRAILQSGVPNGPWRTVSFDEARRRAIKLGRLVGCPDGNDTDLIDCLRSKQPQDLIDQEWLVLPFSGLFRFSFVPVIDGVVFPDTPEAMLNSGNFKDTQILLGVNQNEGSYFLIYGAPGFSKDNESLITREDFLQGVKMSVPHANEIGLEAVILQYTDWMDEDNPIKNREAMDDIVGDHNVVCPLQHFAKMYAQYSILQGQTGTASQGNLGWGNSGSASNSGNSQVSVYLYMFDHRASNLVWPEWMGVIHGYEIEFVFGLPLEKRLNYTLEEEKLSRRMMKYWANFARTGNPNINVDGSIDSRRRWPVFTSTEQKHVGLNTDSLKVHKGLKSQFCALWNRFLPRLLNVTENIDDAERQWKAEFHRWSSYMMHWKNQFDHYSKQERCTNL
Description: Stock solutions (1 mg/mL) of NBS and ascorbic acid were each freshly prepared before the test and then diluted to 10 µg/mL and 100 µg/mL, respectively. The assay was performed with modifications according to Ellman’s method. OTPs, oxons, water, and methanol blanks (15 µL) were each mixed with 15 µL of NBS (10 µg/mL) in a 96-well plate. After an incubation at room temperature for 5 min, the reaction was stopped by adding 15 µL ascorbic acid (100 µg/mL). For the test setup without oxidation, OTPs, oxons, water, and methanol blanks (15 µL) were mixed with 30 µL water per well. Subsequently, 200 µL of a DTNB solution (0.15 mM), buffered in TRIS/HCl at a pH of 7.4, was added to each well of both test setups. Then, 20 µL of an AChE solution (0.5 U/mL), also buffered in TRIS/HCl at a pH of 7.4, was added. An incubation at 30 °C for 30 min without shaking followed. An ATCL solution (0.8 mM) was freshly prepared with water and 30 µL per well was added after incubation. During another incubation at room temperature for 30 min, ATCL was cleaved by AChE into thiocholine and acetic acid. Thiocholine reacts with DTNB to 2-nitro-5-thiobenzoate. The absorbance of the yellow-colored anion was photometrically measured at 405 nm (Sunrise Remote, Tecan Group AG, Männedorf, Schweiz).
Dilution series with eight concentrations of the three OTPs and related oxons (Tab. S1) were freshly prepared from stock solutions (1–10 mg/mL) in methanol. The OTPs and oxons were tested in duplicates with and without prior oxidation in two measurements as described in the “AChE-inhibition microtiter assay” section. Eight water and eight methanol blanks were tested per test setup (oxidation and no oxidation). Of these, two were tested without AChE and two without ATCL. The mean AChE activity (absorption at 405 nm, n = 4) was related to the specific inhibitor dose. The statistic program Prism (version 5.00, Graph Pad Software, San Diego, USA) was used to generate dose–response curves (4-PL fit) and to determine inhibition concentrations (ICs) for the three OTPs and related oxons. The 95% confidence intervals of the curves and the standard deviations of the mean AChE activity were also calculated. The lower boundary of the curves is fixed to 0 and the highest mean activity defines 100%.

[2] = molecular target: T1, AChE from electric eel (Electrophorus electricus); assay: HPTLC-(Ox)-AChE-I assay, spray method (AChE sprayed onto plates); type: biochemical; conditions: spray method, without oxidation; for IC10 (10% AChE inhibition), best fit / IC20 (20% AChE inhibition), best fit / IC50 (50% AChE inhibition), best fit / IC80 (80% AChE inhibition), best fit: OTPs 100 µL, oxons 10 µL applied, peak heights, n = 3
Description: LiChrospher 10 × 20 cm HPTLC Silica gel 60 F254s plates (Merck, Darmstadt, Germany) with a layer thickness of 170–190 µm and spherical silica particles with a size of 7 µm were used. The HPTLC plates were immersed twice in 2-propanol for 20 min, each time followed by a drying step at room temperature for 20 min. The plates then were pre-developed with methanol, dried for 20 min at room temperature, heated at 105 °C for 20 min, and stored in a desiccator for further use. The automatic TLC Sampler 4 (ATS 4, CAMAG AG, Muttenz, Switzerland) was used for sample application. The desired sample volumes were sprayed as 6-mm-wide bands onto the HPTLC plates with an application speed of 300 nL/s. The distances of the exterior bands from the edges of the plates were 15 mm. The distance from the bottom edge was 8 mm for all bands. Methanol was used as rinsing solvent. The following further application parameters were used: filling speed 15 µL/s, pre-dosage volume 200 nL, retraction volume 200 nL, rinsing vacuum time 4 s, filling vacuum time 0 s, rinsing cycles 2, and filling cycles 1. The development of the HPTLC plates was realized by the Automated Multiple Development 2 (AMD 2, CAMAG, Muttenz, Switzerland). The OTPs, their oxons, and environmental samples were separated with an eluent mixture of cyclohexane, dichloromethane, and acetone in different proportions and with increasing migration distances (Fig. S2). After each development step, a drying step of 3 min under vacuum followed. The final migration distance was 80 mm and the whole procedure took approximately 45 min. In addition, a simpler development process was used containing only the last step of the previous described method.
The following AChE-I assay was performed in parts according to Mendoza et al., Stütz et al., and Weins and Jork. AChE was buffered in TRIS/HCl at a pH of 7.8 (2.5 U/mL). The AChE solution was either sprayed onto the HPTLC plates with a glass reagent sprayer until the plates were evenly moist (approx. 10 mL) or the plates were immersed in the AChE solution using the Chromatogram Immersion Device 3 (CID 3, CAMAG, Muttenz, Switzerland). The immersion volume, speed, time, and depth were approx. 200 mL, 2.5 cm/s, 2 s, and approx. 85 mm, respectively. Afterward, the plates were placed separately in closed plastic boxes, which contained paper towels moistened with water to gain a saturated atmosphere. An incubation at 37 °C for 5 min followed. The substrate indoxyl acetate was freshly prepared in methanol at a concentration of 20 mg/mL and 5 mL was sprayed onto the HPTLC plates with a glass reagent sprayer. During 45-min incubation time at room temperature, AChE cleaves the substrate into indoxyl and acetate. The indoxyl reacts with oxygen to the blue indigo dye. When AChE was inhibited, no indigo was produced and the spot stayed white. The TLC Scanner 3 (CAMAG, Muttenz, Switzerland) was used to scan each track on the plates at 670 nm using the fluorescence mode without optical filter. The CAMAG-embedded software Wincats (Vers. 1.4.9) was used to provide chromatograms of each track and to evaluate inhibition zones.
Several amounts of an OTP mix and an oxon mix were applied on HPTLC plates (Tab. S2) and tested as described in the “Combination of HPTLC and AChE-inhibition assay” section. Three plates were used for each dilution series. The application volume was 10 µL for investigating OTPs with following oxidation and 100 µL for testing OTPs without following oxidation. The application volume for the oxons was 10 µL. They were tested without oxidation step also in triplicates. The peak heights were used for evaluation. Only peaks that have a signal-to-noise ratio ≥ 3 were considered in the evaluation. The height next to the respective peak defines the noise.

| Structure (SMILES) | IC80 [1] | IC20 [1] | LOD spray method (first detected AChE-I peak with signal-to-noise ratio ≥ 3) [2] | IC10 (10% AChE inhibition), best fit [2] | IC20 (20% AChE inhibition), best fit [2] | IC50 (50% AChE inhibition), best fit [2] | IC80 (80% AChE inhibition), best fit [2] | IC50 [1] |
| --- | --- | --- | --- | --- | --- | --- | --- | --- |
| CCOP(=O)(OCC)Oc1nc(Cl)c(Cl)cc1Cl [Chlorpyrifos-oxon] | 16 ng/mL (≈ 0.0478 µM) | 3.8 ng/mL (≈ 0.0114 µM) | 0.25 ng/spot | 0.72 ng/spot | 1.1 ng/spot | 2.5 ng/spot | 5.4 ng/spot | – |
| CCOC(=O)CC(SP(=O)(OC)OC)C(=O)OCC (stereo not drawn) [Malaoxon, malaoxon] | 42 ng/mL (≈ 0.134 µM) | 3.5 ng/mL (≈ 0.0111 µM) | 0.1 ng/spot | 0.16 ng/spot | 0.28 ng/spot | 0.75 ng/spot | 2.0 ng/spot | 38.2 nM |
